Reference: patent US12473293B2, “Pharmacologically active heterocyclic-substituted pyrazolo[1,5-a]pyrimidine derivatives” (Richter Gedeon Nyrt., priority 2020, dated 2025)

The molecules below were run against T1, GABAB receptor (Rattus norvegicus, UniProt O88871+Q9Z0U4) (assay: In vitro [35S]GTPγS binding assay in rat cortical membranes). Settings: PAM EC50, [35S]GTPγS binding, read-out: In vitro PAM potency.
T1 construct: from tissue; host or cells: rat brain cortex membranes
T1 sequence (O88871 41-940): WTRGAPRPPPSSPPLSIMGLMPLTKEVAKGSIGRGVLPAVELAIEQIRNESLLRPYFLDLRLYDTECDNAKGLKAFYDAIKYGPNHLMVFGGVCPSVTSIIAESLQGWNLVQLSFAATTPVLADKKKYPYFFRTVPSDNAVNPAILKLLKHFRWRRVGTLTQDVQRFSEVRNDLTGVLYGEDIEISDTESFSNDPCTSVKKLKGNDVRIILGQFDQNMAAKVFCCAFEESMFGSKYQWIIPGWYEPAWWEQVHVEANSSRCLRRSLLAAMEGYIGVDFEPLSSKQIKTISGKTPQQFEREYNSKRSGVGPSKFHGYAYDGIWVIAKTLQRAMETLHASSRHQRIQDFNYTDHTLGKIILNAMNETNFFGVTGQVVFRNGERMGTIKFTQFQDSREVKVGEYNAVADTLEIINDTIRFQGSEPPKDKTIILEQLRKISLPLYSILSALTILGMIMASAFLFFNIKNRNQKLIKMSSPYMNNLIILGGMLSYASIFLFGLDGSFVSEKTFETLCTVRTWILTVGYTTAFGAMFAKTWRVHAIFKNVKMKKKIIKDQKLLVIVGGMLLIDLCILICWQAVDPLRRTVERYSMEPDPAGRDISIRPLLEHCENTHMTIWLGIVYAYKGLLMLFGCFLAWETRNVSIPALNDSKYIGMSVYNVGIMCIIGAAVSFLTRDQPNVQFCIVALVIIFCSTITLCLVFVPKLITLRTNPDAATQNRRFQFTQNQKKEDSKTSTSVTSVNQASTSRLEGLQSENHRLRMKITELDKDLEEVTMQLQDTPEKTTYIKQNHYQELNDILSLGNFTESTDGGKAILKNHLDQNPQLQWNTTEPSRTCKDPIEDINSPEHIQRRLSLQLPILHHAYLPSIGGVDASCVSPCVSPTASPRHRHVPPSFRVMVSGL
T1 sequence (Q9Z0U4 17-960 limits assumed): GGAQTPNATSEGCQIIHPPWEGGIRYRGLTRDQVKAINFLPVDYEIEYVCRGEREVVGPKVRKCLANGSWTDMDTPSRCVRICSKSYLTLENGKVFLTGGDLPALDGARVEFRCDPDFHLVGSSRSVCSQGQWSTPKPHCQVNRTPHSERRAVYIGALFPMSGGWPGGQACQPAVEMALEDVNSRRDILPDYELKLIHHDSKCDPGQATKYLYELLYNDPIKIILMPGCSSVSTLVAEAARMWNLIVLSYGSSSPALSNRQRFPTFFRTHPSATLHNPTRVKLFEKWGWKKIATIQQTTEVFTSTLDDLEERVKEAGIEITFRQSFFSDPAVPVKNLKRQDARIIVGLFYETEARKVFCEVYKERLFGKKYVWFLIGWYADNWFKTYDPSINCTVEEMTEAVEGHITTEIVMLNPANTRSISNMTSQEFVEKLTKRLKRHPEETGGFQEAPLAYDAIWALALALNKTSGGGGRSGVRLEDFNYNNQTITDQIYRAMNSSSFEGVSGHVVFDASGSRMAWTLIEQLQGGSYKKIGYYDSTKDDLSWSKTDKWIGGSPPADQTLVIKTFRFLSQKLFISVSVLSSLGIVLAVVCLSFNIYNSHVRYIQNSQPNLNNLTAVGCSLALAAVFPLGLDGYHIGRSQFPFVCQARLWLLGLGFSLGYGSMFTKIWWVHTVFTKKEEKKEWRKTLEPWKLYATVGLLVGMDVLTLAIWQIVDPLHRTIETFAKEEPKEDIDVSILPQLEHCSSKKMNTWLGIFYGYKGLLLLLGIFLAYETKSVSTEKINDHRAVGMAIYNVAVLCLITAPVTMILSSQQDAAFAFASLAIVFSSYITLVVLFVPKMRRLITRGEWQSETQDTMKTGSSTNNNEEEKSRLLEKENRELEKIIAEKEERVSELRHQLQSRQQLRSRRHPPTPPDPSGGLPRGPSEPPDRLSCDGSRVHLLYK
Assay type: biochemical
Experimental: In Vitro [^35S]GTPγS Binding Assay in Rat Cortical Membranes
Cortices of freshly harvested rat brains were dissected on an ice-cold surface and homogenized by a glass Dounce homogeniser immediately in ice-cold buffer containing 50 mM Tris, 5 mM MgCl2 and 1 mM EDTA (pH=7.6). Tissue homogenates were centrifuged at 40000 g for 15 min at 4° C. Membrane pellets were resuspended in the same buffer and membranes were incubated for 10 min at 30° C. in a shaking water bath to eliminate endogenous GABA. Homogenates were centrifuged again under the same conditions. The final pellets were resuspended in ice-cold buffer (pH=7.6) containing 50 mM Tris, 100 mM NaCl, 7 mM MgCl2, 1 mM EDTA and 1 mM dithiotreithol (DTT) to yield a concentration of 20 mg tissue weight/ml and frozen at −70° C. until use. The assay was done in a buffer containing 50 mM Tris (pH=7.4), 100 mM NaCl, 7 mM MgCl2, 1 mM EDTA and 1 mM DTT. Each assay tube contained 150 μL GDP (in a final concentration of 50 μM), 100 μL ligand and 125 μL of the membrane suspension ([…]). The assay tubes were preincubated for 10 min at 30° C. to assure equilibrium. Nonspecific binding was determined in the presence of 10 μM GTPγS; basal binding was determined in the presence of buffer only. After addition of […] [^35S]GTPγS in a volume of 25 μL to the tubes, membranes were incubated for an additional 60 min at 30° C. The assay was terminated by rapid filtration through Packard UniFilter GF/B using a Packard harvester and washed four times with 1 ml ice-cold buffer. After drying the filters at 40° C. for 1 h, 40 μL Microscint (Packard) was added to the filters and radioactivity of the filters was determined by a TopCount NXT (PerkinElmer, Waltham, MA; Alper and Nelson, Eur. J. Pharmacol. 1998, 343, 303-312; Rinken et al, Biochem. Pharmacol. 1999, 57, 155-162). Data thus gathered were used to determine PAM EC50 values for each compound as primary in vitro activity end point.
In Table 1 compounds of this invention measured in the [^35S]GTPγS binding assay are listed.
For Cc1nc2cc([C@H]3CC[C@H](C(F)(F)F)CC3)nn2c([C@]2(C)CCCN(CC(N)=O)C2)c1C [Example 49], the EC50 was 1000 to 10000 nM. In the case of Cc1cc([C@]2(C)CCCN(CC#N)C2)n2nc([C@H]3CC[C@H](C(F)(F)F)CC3)cc2n1 [Example 50], the EC50 is reported as 100 to 1000 nM. With CCc1c(C)nc2cc([C@H]3CC[C@H](C(F)(F)F)CC3)nn2c1[C@@H]1CCCN(C(=O)OC)C1 [Example 51] the EC50 was 100 to 1000 nM. With Cc1nc2cc([C@H]3CC[C@H](C(F)(F)F)CC3)nn2c([C@@H]2CCCN(C(=O)CN)C2)c1C [Example 52] the EC50 was 1000 to 10000 nM. In the case of Cc1cc([C@@H]2CN(C(=O)CN)CC[C@H]2C)n2nc([C@H]3CC[C@H](C(F)(F)F)CC3)cc2n1 [Example 53], the EC50 is reported as 1000 to 10000 nM. Cc1cc([C@@H]2CCCN(C(=O)C3CC3)C2)n2nc([C@H]3CC[C@H](C(F)(F)F)CC3)cc2n1 [Example 54] showed an EC50 of 100 to 1000 nM. Cc1cc(C2CN(C=O)CCC2(C)C)n2nc([C@H]3CC[C@H](C(F)(F)F)CC3)cc2n1 (stereo partly drawn) [Example 59] showed an EC50 of 100 to 1000 nM. Cc1cc(C2CN(C3COC3)CCC2(C)C)n2nc([C@H]3CC[C@H](C(F)(F)F)CC3)cc2n1 (stereo partly drawn) [Example 60] was tested, and the EC50 was 100 to 1000 nM. For Cc1cc(C2CN(C)CCC2(C)C)n2nc([C@H]3CC[C@H](C(F)(F)F)CC3)cc2n1 (stereo partly drawn) [Example 61], the EC50 was 100 to 1000 nM. CC(=O)N1CCCC(CF)(c2cc(C)nc3cc([C@H]4CC[C@H](C(F)(F)F)CC4)nn23)C1 (stereo partly drawn) [Example 62] showed an EC50 of 100 to 1000 nM. Cc1cc([C@@H]2CCCN(C3CCOC3)C2)n2nc([C@H]3CC[C@H](C(F)(F)F)CC3)cc2n1 (stereo partly drawn) [Example 63] was tested, and the EC50 was 100 to 1000 nM. For Cc1cc([C@]2(C)CCCN(C(=N)N)C2)n2nc([C@H]3CC[C@H](C(F)(F)F)CC3)cc2n1 [Example 64], the EC50 was 1000 to 10000 nM. Cc1cc([C@@H]2CCCN(C(=O)N3CCOCC3)C2)n2nc([C@H]3CC[C@H](C(F)(F)F)CC3)cc2n1 [Example 65] gave an EC50 of 1000 to 10000 nM. Molecule CCC1CCN(C(=O)OC)CC1c1cc(C)nc2cc([C@H]3CC[C@H](C(F)(F)F)CC3)nn12 (stereo partly drawn) [Example 67] has an EC50 of 100 to 1000 nM. Cc1cc([C@]2(C)CCCN(C=O)C2)n2nc([C@H]3CC[C@H](C(F)(F)F)CC3)cc2n1 [Example 69] was tested, and the EC50 was 100 to 1000 nM. Molecule CC(=O)N1CCOC(c2c(C)c(C)nc3cc([C@H]4CC[C@H](C(F)(F)F)CC4)nn23)C1 (stereo partly drawn) [Example 70] has an EC50 of 100 to 1000 nM. In the case of Cc1cc([C@]2(C)CCCN(S(N)(=O)=O)C2)n2nc([C@H]3CC[C@H](C(F)(F)F)CC3)cc2n1 [Example 71], the EC50 is reported as 1000 to 10000 nM. CCC1CCN(C=O)CC1c1cc(C)nc2cc([C@H]3CC[C@H](C(F)(F)F)CC3)nn12 (stereo partly drawn) [Example 72] gave an EC50 of 100 to 1000 nM. With COC(=O)N1CCOC(C)(c2cc(C)nc3cc([C@H]4CC[C@H](C(F)(F)F)CC4)nn23)C1 (stereo partly drawn) [Example 73] the EC50 was 1000 to 10000 nM. Molecule COC(=O)N1CC(c2c(C)c(C)nc3cc([C@H]4CC[C@H](C(F)(F)F)CC4)nn23)CC(F)(F)C1 (stereo partly drawn) [Example 74] has an EC50 of 100 to 1000 nM. In the case of COC(=O)N1CC[C@H](C)[C@H](c2c(C)c(C)nc3cc([C@H]4CC[C@H](C(F)(F)F)CC4)nn23)C1 [Example 77], the EC50 is reported as under 100 nM. In the case of Cc1cc(C2(C)CN(C=O)CC(F)(F)C2)n2nc([C@H]3CC[C@H](C(F)(F)F)CC3)cc2n1 (stereo partly drawn) [Example 78], the EC50 is reported as 100 to 1000 nM. Cc1nc2cc([C@H]3CC[C@H](C(F)(F)F)CC3)nn2c(C2CN(C(=O)C3(C)COC3)CC(F)(F)C2)c1C (stereo partly drawn) [Example 79] was tested, and the EC50 was 100 to 1000 nM. Cc1nc2cc([C@H]3CC[C@H](C(F)(F)F)CC3)nn2c(C2CN(C=O)CCO2)c1C (stereo partly drawn) [Example 80] gave an EC50 of 100 to 1000 nM. Cc1cc(C2CN(C=O)CCO2)n2nc([C@H]3CC[C@H](C(F)(F)F)CC3)cc2n1 (stereo partly drawn) [Example 83] showed an EC50 of 100 to 1000 nM. Work on COC(=O)N1CCOC(c2cc(C)nc3cc([C@H]4CC[C@H](C(F)(F)F)CC4)nn23)C1 (stereo partly drawn) [Example 84] yielded an EC50 of 100 to 1000 nM. Molecule Cc1cc([C@H]2CN(C=O)CCO2)n2nc([C@H]3CC[C@H](C(F)(F)F)CC3)cc2n1 [Example 86] has an EC50 of 100 to 1000 nM. Molecule Cc1cc(C2CN(C=O)CCS2(=O)=O)n2nc([C@H]3CC[C@H](C(F)(F)F)CC3)cc2n1 (stereo partly drawn) [Example 87] has an EC50 of at least 10000 nM. In the case of CC(=O)N1CCO[C@@H](c2c(C)c(C)nc3cc([C@H]4CC[C@H](C(F)(F)F)CC4)nn23)C1 [Example 88], the EC50 is reported as 100 to 1000 nM. In the case of Cc1cc([C@H]2CCCN(C=O)[C@@H]2C)n2nc([C@H]3CC[C@H](C(F)(F)F)CC3)cc2n1 [Example 89], the EC50 is reported as 100 to 1000 nM. With COC(=O)N1CCS(=O)(=O)[C@@H](c2cc(C)nc3cc([C@H]4CC[C@H](C(F)(F)F)CC4)nn23)C1 [Example 90] the EC50 was at least 10000 nM. With COC(=O)N1CCO[C@H](c2cc(C)nc3cc([C@H]4CC[C@H](C(F)(F)F)CC4)nn23)C1 [Example 93] the EC50 was 1000 to 10000 nM. Molecule Cc1cc([C@@H]2CN(C=O)CCO2)n2nc([C@H]3CC[C@H](C(F)(F)F)CC3)cc2n1 [Example 94] has an EC50 of 1000 to 10000 nM. Work on CCOC(=O)N1CCO[C@H](c2cc(C)nc3cc([C@H]4CC[C@H](C(F)(F)F)CC4)nn23)C1 [Example 95] yielded an EC50 of 1000 to 10000 nM. COC(=O)N1C[C@@H](c2cc(C)nc3cc([C@H]4CC[C@H](C(F)(F)F)CC4)nn23)OC[C@@H]1C [Example 96] was tested, and the EC50 was 1000 to 10000 nM. Work on COC(=O)N1CCC[C@H](c2cc(C)nc3cc([C@H]4CC[C@H](C(F)(F)F)CC4)nn23)[C@@H]1C [Example 97] yielded an EC50 of 100 to 1000 nM. For Cc1cc([C@@H]2CN(C=O)[C@@H](C)CO2)n2nc([C@H]3CC[C@H](C(F)(F)F)CC3)cc2n1 [Example 98], the EC50 was 1000 to 10000 nM. Cc1cc([C@H]2CN(C(=O)OC(C)C)CCO2)n2nc([C@H]3CC[C@H](C(F)(F)F)CC3)cc2n1 [Example 99] was tested, and the EC50 was 100 to 1000 nM. With COCCOC(=O)N1CCO[C@@H](c2cc(C)nc3cc([C@H]4CC[C@H](C(F)(F)F)CC4)nn23)C1 [Example 100] the EC50 was 100 to 1000 nM. With COC(=O)N1C[C@H](c2cc(C)nc3cc([C@H]4CC[C@H](C(F)(F)F)CC4)nn23)OC[C@@H]1C [Example 102] the EC50 was under 100 nM. Cc1cc([C@H]2CN(C=O)[C@@H](C)CO2)n2nc([C@H]3CC[C@H](C(F)(F)F)CC3)cc2n1 [Example 103] was tested, and the EC50 was 100 to 1000 nM. Molecule Cc1cc(C2CCCN(C)C2=O)n2nc([C@H]3CC[C@H](C(F)(F)F)CC3)cc2n1 (stereo partly drawn) [Example 105] has an EC50 of 1000 to 10000 nM. COC(=O)N1C[C@H](c2cc(C)nc3cc([C@H]4CC[C@H](C(F)(F)F)CC4)nn23)OC[C@H]1C [Example 106] showed an EC50 of 100 to 1000 nM. CCOC(=O)N1CCC[C@H](c2cc(C)nc3cc([C@H]4CC[C@H](C(F)(F)F)CC4)nn23)[C@@H]1C [Example 107] gave an EC50 of 1000 to 10000 nM. With Cc1cc([C@H]2CN(C=O)[C@H](C)CO2)n2nc([C@H]3CC[C@H](C(F)(F)F)CC3)cc2n1 [Example 108] the EC50 was 100 to 1000 nM. For CC(=O)N1CCO[C@@H](c2cc(C)nc3cc([C@H]4CC[C@H](C(F)(F)F)CC4)nn23)C1 [Example 109], the EC50 was 100 to 1000 nM. For COC(=O)N1C[C@@H](c2cc(C)nc3cc([C@H]4CC[C@H](C(F)(F)F)CC4)nn23)OC[C@H]1C [Example 110], the EC50 was 1000 to 10000 nM. With Cc1cc([C@H]2CN(C(=O)c3cnco3)CCO2)n2nc([C@H]3CC[C@H](C(F)(F)F)CC3)cc2n1 [Example 114] the EC50 was 100 to 1000 nM. With Cc1cc([C@H]2CN(C(=O)c3cncs3)CCO2)n2nc([C@H]3CC[C@H](C(F)(F)F)CC3)cc2n1 [Example 118] the EC50 was 100 to 1000 nM. Molecule Cc1cc([C@H]2CN(S(C)(=O)=O)CCO2)n2nc([C@H]3CC[C@H](C(F)(F)F)CC3)cc2n1 [Example 119] has an EC50 of 100 to 1000 nM. For Cc1cc([C@H]2CN(S(=O)(=O)N(C)C)CCO2)n2nc([C@H]3CC[C@H](C(F)(F)F)CC3)cc2n1 [Example 120], the EC50 was 100 to 1000 nM.
